The supplement of paper PMC11061612

Assays:
Capivasertib = compound: C1CN(CCC1(C(=O)N[C@@H](CCO)C2=CC=C(C=C2)Cl)N)C3=NC=NC4=C3C=CN4 [Capivasertib]; conditions: max 10 µM
Outline: (§1)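 Cancer cell lines were dosed for 72 hours (final DMSO typically 0.2%) after 24 hours at 37°C and 5% CO2 in 1536-well plates containing 7.5 μl DMEM/F12 or RPMI with 10% FBS. Viability came from CellTiter-Glo 2.0 luminescence, scaled between blank-well and DMSO-well means, and dose responses were fitted to a two-parameter logistic curve with a non-linear mixed effects model. The single-agent IC50 was obtained from this fit.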

AZD1775 = compound: C=CCn1c(=O)c2cnc(Nc3ccc(N4CCN(C)CC4)cc3)nc2n1-c1cccc(C(C)(C)O)n1 [AZD1775]; conditions: max 3 µM
Outline: as §1

Trametinib = compound: CC(=O)Nc1cccc(-n2c(=O)n(C3CC3)c(=O)c3c(Nc4ccc(I)cc4F)n(C)c(=O)c(C)c32)c1 [Trametinib]; conditions: max 1 µM
Outline: as §1

Palbociclib = compound: CC(=O)c1c(C)c2cnc(Nc3ccc(N4CCNCC4)cn3)nc2n(C2CCCC2)c1=O [Palbociclib]; conditions: max 10 µM
Outline: as §1

AZD1390 = compound: CC(C)n1c(=O)n(C)c2cnc3cc(F)c(-c4ccc(OCCCN5CCCCC5)nc4)cc3c21 [AZD1390]; conditions: max 0.3 µM
Outline: as §1

Venetoclax = compound: CC1(C)CCC(CN2CCN(c3ccc(C(=O)NS(=O)(=O)c4ccc(NCC5CCOCC5)c([N+](=O)[O-])c4)c(Oc4cnc5[nH]ccc5c4)c3)CC2)=C(c2ccc(Cl)cc2)C1 [Venetoclax]; conditions: max 1 µM
Outline: as §1

Dasatinib = compound: CC1=C(C(=CC=C1)Cl)NC(=O)C2=CN=C(S2)NC3=CC(=NC(=N3)C)N4CCN(CC4)CCO [Dasatinib]; conditions: max 2 µM
Outline: as §1

SG3199 = compound: CC1=CN2[C@@H](C1)C=NC3=CC(=C(C=C3C2=O)OC)OCCCCCOC4=C(C=C5C(=C4)N=C[C@@H]6CC(=CN6C5=O)C)OC [SG3199]; conditions: max 0.001 µM
Outline: as §1

AZD2811 = compound: CCN(CCO)CCCOc1ccc2c(Nc3cc(CC(=O)Nc4cccc(F)c4)[nH]n3)ncnc2c1 [AZD2811]; conditions: max 1 µM
Outline: as §1

SN-38 = compound: CCc1c2c(nc3ccc(O)cc13)-c1cc3c(c(=O)n1C2)COC(=O)[C@]3(O)CC [SN-38]; conditions: max 0.3 µM
Outline: as §1

AZD0156 = compound: CN(C)CCCOc1ccc(-c2ccc3ncc4c(c3c2)n(C2CCOCC2)c(=O)n4C)cn1 [AZD0156]; conditions: max 3 µM
Outline: as §1

AZD4320 = compound: CN(CC[C@H](CSC1=CC=CC=C1)NC2=C(C=C(C=C2)S(=O)(=O)NC(=O)C3=CC=C(C=C3)N4CCC(CC4)[C@H](C5=CC=CC=C5C6=CC=C(C=C6)Cl)O)S(=O)(=O)C(F)(F)F)CCO [AZD4320]; conditions: max 1 µM
Outline: as §1

Alisertib = compound: COc1cc(Nc2ncc3c(n2)-c2ccc(Cl)cc2C(c2c(F)cccc2OC)=NC3)ccc1C(=O)O [Alisertib]; conditions: max 10 µM
Outline: as §1

Gefitinib = compound: COc1cc2ncnc(Nc3ccc(F)c(Cl)c3)c2cc1OCCCN1CCOCC1 [Gefitinib]; conditions: max 10 µM
Outline: as §1

Prexasertib = compound: COc1cccc(OCCCN)c1-c1cc(Nc2cnc(C#N)cn2)n[nH]1 [Prexasertib]; conditions: max 1 µM
Outline: as §1

Doxorubicin = compound: COc1cccc2c1C(=O)c1c(O)c3c(c(O)c1C2=O)C[C@@](O)(C(=O)CO)C[C@@H]3O[C@H]1C[C@H](N)[C@H](O)[C@H](C)O1 [Doxorubicin]; conditions: max 1 µM
Outline: as §1

AZD5153 = compound: COc1nnc2ccc(N3CCC(c4ccc(OCCN5CCN(C)C(=O)[C@H]5C)cc4)CC3)nn12 [AZD5153]; conditions: max 1 µM
Outline: as §1

Lapatinib = compound: CS(=O)(=O)CCNCc1ccc(-c2ccc3ncnc(Nc4ccc(OCc5cccc(F)c5)c(Cl)c4)c3c2)o1 [Lapatinib]; conditions: max 10 µM
Outline: as §1

AZD8186 = compound: C[C@@H](Nc1cc(F)cc(F)c1)c1cc(C(=O)N(C)C)cc2c(=O)cc(N3CCOCC3)oc12 [AZD8186]; conditions: max 3 µM
Outline: as §1

Crizotinib = compound: C[C@@H](Oc1cc(-c2cnn(C3CCNCC3)c2)cnc1N)c1c(Cl)ccc(F)c1Cl [Crizotinib]; conditions: max 10 µM
Outline: as §1

Savolitinib = compound: C[C@@H](c1ccc2nccn2c1)n1nnc2ncc(-c3cnn(C)c3)nc21 [Savolitinib]; conditions: max 1 µM
Outline: as §1

AZD6738 = compound: C[C@@H]1COCCN1C2=NC(=NC(=C2)C3(CC3)[S@](=N)(=O)C)C4=C5C=CNC5=NC=C4 [AZD6738]; conditions: max 10 µM
Outline: as §1

AZD5991 = compound: Cc1c2c(nn1C)CSCc1cc(n(C)n1)CSc1cc(c3ccccc3c1)OCCCc1c(C(=O)O)n(C)c3c-2c(Cl)ccc13 [AZD5991]; conditions: max 1 µM
Outline: as §1

AZD7648 = compound: Cc1cc2ncnn2cc1Nc1ncc2c(n1)n(C1CCOCC1)c(=O)n2C [AZD7648]; conditions: max 10 µM
Outline: as §1

Taselisib = compound: Cc1nc(-c2cn3c(n2)-c2ccc(-c4cnn(C(C)(C)C(N)=O)c4)cc2OCC3)n(C(C)C)n1 [Taselisib]; conditions: max 10 µM
Outline: as §1

Selumetinib = compound: Cn1cnc2c(F)c(Nc3ccc(Br)cc3Cl)c(C(=O)NOCCO)cc21 [Selumetinib]; conditions: max 10 µM
Outline: as §1

MK-2206 = compound: NC1(c2ccc(-c3nc4ccn5c(=O)[nH]nc5c4cc3-c3ccccc3)cc2)CCC1 [MK-2206]; conditions: max 10 µM
Outline: as §1

Olaparib = compound: O=C(c1cc(Cc2n[nH]c(=O)c3ccccc23)ccc1F)N1CCN(C(=O)C2CC2)CC1 [Olaparib]
Outline: as §1

Row | Cell Line | IC50, cell viability 72 h (Capivasertib) [µM] | IC50, cell viability 72 h (AZD1775) [µM] | IC50, cell viability 72 h (Trametinib) [µM] | IC50, cell viability 72 h (Palbociclib) [µM] | IC50, cell viability 72 h (AZD1390) [µM] | IC50, cell viability 72 h (Venetoclax) [µM] | IC50, cell viability 72 h (Dasatinib) [µM] | IC50, cell viability 72 h (SG3199) [µM] | IC50, cell viability 72 h (AZD2811) [µM] | IC50, cell viability 72 h (SN-38) [µM] | IC50, cell viability 72 h (AZD0156) [µM] | IC50, cell viability 72 h (AZD4320) [µM] | IC50, cell viability 72 h (Alisertib) [µM] | IC50, cell viability 72 h (Gefitinib) [µM] | IC50, cell viability 72 h (Prexasertib) [µM] | IC50, cell viability 72 h (Doxorubicin) [µM] | IC50, cell viability 72 h (AZD5153) [µM] | IC50, cell viability 72 h (Lapatinib) [µM] | IC50, cell viability 72 h (AZD8186) [µM] | IC50, cell viability 72 h (Crizotinib) [µM] | IC50, cell viability 72 h (Savolitinib) [µM] | IC50, cell viability 72 h (AZD6738) [µM] | IC50, cell viability 72 h (AZD5991) [µM] | IC50, cell viability 72 h (AZD7648) [µM] | IC50, cell viability 72 h (Taselisib) [µM] | IC50, cell viability 72 h (Selumetinib) [µM] | IC50, cell viability 72 h (MK-2206) [µM] | IC50, cell viability 72 h (Olaparib; max 10 µM) [µM] | IC50, cell viability 72 h (Olaparib; max 3 µM) [µM]
1 | NCI-H513 (Other Solid Carcinomas) | > 10 | > 3 | 0.643 | > 10 | > 0.3 | > 1 | > 2 | > 0.001 | > 1 | 0.21 | > 3 | > 1 | > 10 | > 10 | > 1 | > 1 | > 1 | > 10 | > 3 | > 10 | > 1 | > 10 | > 1 | > 10 | > 10 | > 10 | > 10 | > 10 | 
2 | NCI-H1573 (Lung Adenocarcinoma) | > 10 | > 3 | 0.429 | > 10 | > 0.3 | > 1 | > 2 | > 0.001 | > 1 | > 0.3 | > 3 | > 1 | > 10 | > 10 | 0.296 | > 1 | > 1 | > 10 | > 3 | > 10 | > 1 | > 10 | > 1 | > 10 | > 10 | > 10 | > 10 | > 10 | 
3 | NCI-H2347 (Lung Adenocarcinoma) | > 10 | > 3 | > 1 | > 10 | > 0.3 | > 1 | > 2 | > 0.001 | > 1 | > 0.3 | > 3 | > 1 | > 10 | > 10 | > 1 | > 1 | > 1 | > 10 | > 3 | > 10 | > 1 | > 10 | > 1 | > 10 | > 10 | > 10 | > 10 | > 10 | 
4 | NCI-H2405 (Lung Adenocarcinoma) | > 10 | > 3 | 0.43 | > 10 | > 0.3 | > 1 | > 2 | > 0.001 | > 1 | > 0.3 | > 3 | > 1 | > 10 | > 10 | > 1 | > 1 | > 1 | > 10 | > 3 | > 10 | > 1 | > 10 | > 1 | > 10 | > 10 | > 10 | > 10 | > 10 | 
5 | OVISE (Ovarian Carcinoma) | > 10 | 0.952 | > 1 | > 10 | > 0.3 | > 1 | 0.415 | > 0.001 | > 1 | > 0.3 | > 3 | 0.463 | 8.95 | > 10 | 0.1 | > 1 | 0.681 | > 10 | > 3 | > 10 | > 1 | 5.98 | > 1 | > 10 | 0.449 | > 10 | > 10 | > 10 | 
6 | PFSK-1 (Other Solid Carcinomas) | > 10 | 1.06 | > 1 | > 10 | > 0.3 | > 1 | > 2 |  | > 1 | 0.0324 | > 3 | > 1 | > 10 | > 10 | 0.0404 |  | > 1 | > 10 | > 3 | 3.07 | > 1 | 8.13 | 0.114 | > 10 | 0.626 | > 10 | 2.09 |  | > 3
7 | RPMI-7951 (Melanoma) | 3.38 | 0.489 | 0.136 | > 10 | > 0.3 | > 1 | 0.13 | > 0.001 | > 1 | 0.0158 | > 3 | > 1 | 2.14 | > 10 | 0.0194 | 0.173 | 0.63 | > 10 | 2.73 | 5.75 | > 1 | 2.25 | 0.488 | > 10 | 2.35 | > 10 |  | > 10 | 
8 | SCC-3 (B-Cell Non-Hodgkin's Lymphoma) | > 10 | 0.37 | > 1 | > 10 | > 0.3 | > 1 | > 2 | > 0.001 | > 1 | 0.0061 | > 3 | > 1 | 0.721 | > 10 | 0.0176 | 0.386 | 0.0674 | > 10 | > 3 | 0.717 | > 1 | 1.07 | > 1 | > 10 | > 10 | > 10 |  | > 10 | 
